Data on two compounds can be found in patent publication US5240959A, “Aranorosinol-A and aranorosinol-B produced by Pseudoarachniotus roseus” (Hoechst Aktiengesellschaft, priority 1991, dated 1993).

One data set in a line: Solubility. The format is physicochemical.
The next data set concerns Microsporum. Kind of data set: Minimum inhibitory concentration, Microsporum. Format: cell-based. An excerpt:
(§1) The minimum inhibitory concentrations required to inhibit different bacteria and fungal strains by Aranorosinol-A and Aranorosinol-B are given in Table I

The next data set concerns Salmonella typhimurium. The data set can be described thus: Minimum inhibitory concentration, Salmonella typhimurium. The note with it: Salmonella enterica. The format is cell-based.
Description: as §1

In another data set the test system is Candida albicans. Kind of data set: Minimum inhibitory concentration, Candida albicans. The format is cell-based.
Description: as §1

The test system of another data set is Pseudomonas aeruginosa. The data set can be described thus: Minimum inhibitory concentration, Pseudomonas aeruginosa. The format is cell-based.
Description: as §1

For data set [1], the system named is Staphylococcus aureus 209 P. Kind of data set: Minimum inhibitory concentration, Staphylococcus aureus 209 P. Format: cell-based.
Description: as §1

A further data set deals with Bacillus subtilis. The data set can be described thus: Minimum inhibitory concentration, Bacillus subtilis. The format is cell-based.
Description: as §1

The test system of another data set is Proteus vulgaris. Kind of data set: Minimum inhibitory concentration, Proteus vulgaris. Format: cell-based.
Description: as §1

The test system of another data set is Aspergillus niger. The data set can be described thus: Minimum inhibitory concentration, Aspergillus niger. The format is cell-based.
Description: as §1

A further data set relates to Streptococcus faecalis. The data set can be described thus: Minimum inhibitory concentration, Streptococcus faecalis. Format: cell-based. The note with it: Enterococcus faecalis.
Description: as §1

In a further data set the test system is E. coli Ess 2231. Kind of data set: Minimum inhibitory concentration, E. coli Ess 2231. Format: cell-based. The note with it: Escherichia coli, ESS2231.
Description: as §1

A further data set concerns Klebsiella pneumoniae. The data set can be described thus: Minimum inhibitory concentration, Klebsiella pneumoniae. The format is cell-based.
Description: as §1

The next data set concerns E. coli 9632. The data set can be described thus: Minimum inhibitory concentration, E. coli 9632. Format: cell-based. The note with it: Escherichia coli.
Description: as §1

A further data set deals with Saccharomyces cerevisiae. Kind of data set: Minimum inhibitory concentration, Saccharomyces cerevisiae. Format: cell-based.
Description: as §1

Data set [2] deals with Staphylococcus aureus 20240. Kind of data set: Minimum inhibitory concentration, Staphylococcus aureus 20240. Format: cell-based.
Description: as §1

For data set [3], the system named is Trichophyton mentagrophytes. The data set can be described thus: Minimum inhibitory concentration, Trichophyton mentagrophytes. Format: cell-based.
Description: as §1

Data set [4] relates to bacteria and fungal strains. Kind of data set: Antibacterial and antifungal activity spectrum. The format is cell-based. The conditions noted are these: conclusion from Table I.
Description: as §1

[5] abbreviates: in dichloromethane, chloroform, acetone, methanol, diethyl ether, ethyl acetate and dimethyl sulfoxide.

In brackets after ≈: the same amount, converted by molar mass. Bounds are passed on as bounds.

On to `CCCCCCC(C)/C=C(C)/C=C/C(=O)NC1CC2(OC1O)C1OC1C(O)C1OC12` (stereo not drawn) [Aranorosinol-A], for which the Solubility entry in “Solubility” (setting [5]) is reported as “soluble”; in the data set “Solubility” (in n-hexane, water) it was “Insoluble”. Moreover, the MIC (in general, the least concentration at which growth counts as inhibited) in the data set with Microsporum is more than 250 µg/mL; in the data set with Salmonella typhimurium, more than 250 µg/mL; in the data set on Candida albicans, 62.5 µg/mL (≈ 148 µM); with Pseudomonas aeruginosa, more than 250 µg/mL; in data set [1], 15.6 µg/mL (≈ 37 µM); against Bacillus subtilis, 3.9 µg/mL (≈ 9.25 µM). In addition, the MIC in the data set with Proteus vulgaris was more than 250 µg/mL; in the data set on Aspergillus niger, more than 250 µg/mL; against Streptococcus faecalis, 31.2 µg/mL (≈ 74.1 µM); with E. coli Ess 2231 it was 62.5 µg/mL (≈ 148 µM); with Klebsiella pneumoniae, more than 250 µg/mL; against E. coli 9632, more than 250 µg/mL. For the same compound, the MIC was determined as 31.2 µg/mL (≈ 74.1 µM) against Saccharomyces cerevisiae, 31.2 µg/mL (≈ 74.1 µM) in data set [2] and 62.5 µg/mL (≈ 148 µM) in data set [3]. Also, in [4], the “activity against bacteria and fungi (in words)” value was “active against Gram-positive, Gram-negative bacteria and against yeast and filamentous fungi”.
In the case of `CCCCCCC(C)/C=C(C)/C=C/C(=O)NC1CC2(OC1O)C1OC1C(O)(CC(C)=O)C1OC12` (stereo not drawn) [Aranorosinol-B], the Solubility result in “Solubility” (setting [5]) was “soluble”; in the data set “Solubility” (in n-hexane, water) it was “Insoluble”. In addition, the MIC in the data set with Microsporum was more than 250 µg/mL; against Salmonella typhimurium, more than 250 µg/mL; against Candida albicans, 250 µg/mL (≈ 523 µM); against Pseudomonas aeruginosa, more than 250 µg/mL; in data set [1], 31.2 µg/mL (≈ 65.4 µM); against Bacillus subtilis, 15.6 µg/mL (≈ 32.7 µM). Further, the MIC was more than 250 µg/mL in the data set on Proteus vulgaris; more than 250 µg/mL against Aspergillus niger; 125 µg/mL (≈ 262 µM) against Streptococcus faecalis; more than 250 µg/mL with E. coli Ess 2231; more than 250 µg/mL in the data set with Klebsiella pneumoniae; more than 250 µg/mL in the data set on E. coli 9632. The MIC with Saccharomyces cerevisiae is 250 µg/mL (≈ 523 µM); in data set [2], 15.6 µg/mL (≈ 32.7 µM); in data set [3], more than 250 µg/mL. Also, the “activity against bacteria and fungi (in words)” value in data set [4] was “active against Gram-positive bacteria only”.
